Data from article PMC11851430, “Workflow for E3 Ligase Ligand Validation for PROTAC Development” (ACS Chemical Biology, 2025).

Tests used:
CAMK2BA = biological target: T1, CAMK2BA (Homo sapiens, UniProt Q13554); experiment: DSF assay; format: binding; conditions: 20 µM compound
T1 construct: purchased in-house DSF panel (SGC-style construct names; the trailing A/B is a construct suffix)

full-length AAK1 = full-length AAK1 (Homo sapiens, UniProt Q2M2I8); experiment: NanoBRET target engagement assay, intact and permeabilized cells; conditions: NanoBRET, mean of duplicates
Chain of full-length AAK1 (Q2M2I8 whole entry): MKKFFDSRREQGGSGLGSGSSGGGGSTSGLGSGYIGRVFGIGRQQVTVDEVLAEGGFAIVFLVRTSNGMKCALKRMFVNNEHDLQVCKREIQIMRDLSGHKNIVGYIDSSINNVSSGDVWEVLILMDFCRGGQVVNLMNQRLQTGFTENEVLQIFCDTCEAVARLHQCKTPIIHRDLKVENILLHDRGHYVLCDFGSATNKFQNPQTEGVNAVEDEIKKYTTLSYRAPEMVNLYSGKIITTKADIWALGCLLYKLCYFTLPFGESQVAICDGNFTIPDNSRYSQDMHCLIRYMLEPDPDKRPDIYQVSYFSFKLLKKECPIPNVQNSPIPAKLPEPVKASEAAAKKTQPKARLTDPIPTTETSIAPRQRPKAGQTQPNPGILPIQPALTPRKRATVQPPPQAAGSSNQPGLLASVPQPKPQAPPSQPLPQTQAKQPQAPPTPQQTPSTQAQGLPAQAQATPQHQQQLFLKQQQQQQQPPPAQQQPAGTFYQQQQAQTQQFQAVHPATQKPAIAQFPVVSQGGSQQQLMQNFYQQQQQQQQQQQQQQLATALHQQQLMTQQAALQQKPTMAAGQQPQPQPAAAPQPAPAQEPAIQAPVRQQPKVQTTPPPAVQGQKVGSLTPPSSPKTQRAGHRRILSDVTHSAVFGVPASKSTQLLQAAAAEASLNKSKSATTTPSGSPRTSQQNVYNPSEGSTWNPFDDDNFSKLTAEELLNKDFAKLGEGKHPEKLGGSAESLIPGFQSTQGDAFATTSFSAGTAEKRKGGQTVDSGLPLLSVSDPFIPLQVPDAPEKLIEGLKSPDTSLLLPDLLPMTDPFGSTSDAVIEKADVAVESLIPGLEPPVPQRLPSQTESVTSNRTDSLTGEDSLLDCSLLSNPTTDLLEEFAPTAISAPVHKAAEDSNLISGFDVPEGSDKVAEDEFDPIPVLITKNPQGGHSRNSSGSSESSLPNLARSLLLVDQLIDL
Method: Compounds were pipetted at various concentrations using an Echo acoustic dispenser (Labcyte), immediately followed by Tracer K10 (Promega, Tracer DB ID: T000008) for AAK1 and Aurora A and VHL Tracer (Promega, Tracer DB ID: T000019) for VHL, at an optimum KD concentration chosen from TracerDB ( tracerdb.org), respectively.
To measure the BRET signal, the NanoBRET® NanoGlo Substrate (Promega:
N1573) was added as per the manufacturer’s protocol, and filtered luminescence was measured on a PHERAstar plate reader (BMG Labtech) equipped with a luminescence filter pair (450 nm BP filter (donor) and 610 nm LP filter (acceptor)). For NanoBRET® measurement in permeabilized cells, 25 nL of digitonin (0.05 μg/μL) was pipetted into each well using an
After incubation, the BRET signals were measured by a PHERAstar plate reader (BMG Labtech) following the same procedure as intact NanoBRET® measurement. Competitive displacement data were then normalized to controls and were plotted using GraphPad Prism 9 software employing a normalized 3-parameter curve fit with the following equation:

[1] = test system: kinase protein levels in MCF-7 cells; experiment: TMT-labeled quantitative proteomics; format: cell-based, human
[2] = biological target: T2, kinase protein levels in MCF-7 cells (Homo sapiens, UniProt A0A096LP01); experiment: TMT-labeled quantitative proteomics; format: cell-based; conditions: protein LINC00493
T2 construct: endogenous in cells; host or cells: MCF-7
T2 sequence (A0A096LP01 whole entry): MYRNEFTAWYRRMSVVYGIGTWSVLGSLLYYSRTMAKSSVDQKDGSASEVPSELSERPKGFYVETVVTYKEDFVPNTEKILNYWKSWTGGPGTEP

Jurkat cells = experiment: CellTiterGlo cell viability assay; format: cell-based, human; conditions: 24 h, mean of triplicates, ^b/^c values estimated
Method in brief: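 Jurkat cells treated with compound titrations; viability read by CellTiter-Glo 2.0 luminescence after 10 min at room temperature, fitted to a four-parameter curve. Proteomics samples lysed in 2% SDS, 50 mM Tris pH 8.5, TCEP and CAA, sonicated, then analysed by label-free quantitation.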

MERTKA = biological target: T3, MERTKA (Homo sapiens, UniProt Q12866); experiment: DSF assay; format: binding; conditions: 20 µM compound
T3 construct: purchased in-house DSF panel (SGC-style construct names; the trailing A/B is a construct suffix)
T3 sequence (Q12866 574-864): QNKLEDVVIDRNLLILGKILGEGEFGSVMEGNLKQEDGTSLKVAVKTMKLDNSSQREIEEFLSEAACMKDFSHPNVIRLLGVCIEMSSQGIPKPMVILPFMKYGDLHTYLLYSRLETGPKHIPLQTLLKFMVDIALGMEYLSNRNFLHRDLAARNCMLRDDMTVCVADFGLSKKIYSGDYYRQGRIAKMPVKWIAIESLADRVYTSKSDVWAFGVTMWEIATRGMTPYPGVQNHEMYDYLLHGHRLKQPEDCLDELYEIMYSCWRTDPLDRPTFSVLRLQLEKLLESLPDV

CAMKK2B = biological target: T4, CAMKK2B (Homo sapiens, UniProt Q96RR4); experiment: DSF assay; format: binding; conditions: 20 µM compound
T4 construct: purchased in-house DSF panel (SGC-style construct names; the trailing A/B is a construct suffix)
T4 sequence (Q96RR4 161-449): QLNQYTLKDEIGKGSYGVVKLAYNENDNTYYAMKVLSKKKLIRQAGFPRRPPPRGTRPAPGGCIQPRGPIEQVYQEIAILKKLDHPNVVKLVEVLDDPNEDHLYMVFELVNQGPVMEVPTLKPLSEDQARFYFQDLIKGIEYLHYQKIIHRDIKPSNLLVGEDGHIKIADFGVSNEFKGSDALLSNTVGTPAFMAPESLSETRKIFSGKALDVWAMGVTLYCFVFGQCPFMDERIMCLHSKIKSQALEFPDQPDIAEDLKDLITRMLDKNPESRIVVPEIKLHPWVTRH

T1 sequence (Q13554 11-303): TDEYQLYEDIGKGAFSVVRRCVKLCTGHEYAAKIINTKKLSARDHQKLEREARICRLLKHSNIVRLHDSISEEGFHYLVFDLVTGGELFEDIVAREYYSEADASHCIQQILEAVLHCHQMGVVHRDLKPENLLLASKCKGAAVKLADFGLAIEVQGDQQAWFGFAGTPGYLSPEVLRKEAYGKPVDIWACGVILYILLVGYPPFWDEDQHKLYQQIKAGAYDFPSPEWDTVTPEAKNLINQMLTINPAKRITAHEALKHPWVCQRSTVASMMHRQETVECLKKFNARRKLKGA

ΔTm at 20 µM (CAMK2BA): 1.15 °C
IC50 (full-length AAK1; AAK1 intact (IC50±sd)/μM, intact cells, ^a values estimated by extrapolation): 0.012 ± 0.002 µM
IC50 (full-length AAK1; AAK1 permeabilized (IC50±sd)/μM, permeabilized cells): 0.015 ± 0.002 µM
P.Value (compound/DMSO) ([2]; MCF7, 2.5 µM, set3): 0.03457
log2FC (compound/DMSO) ([2]; MCF7, 2.5 µM, set3): -0.4501
P.Value (compound/DMSO) ([2]; MCF, 0.25µM, set4): 0.002655
log2FC (compound/DMSO) ([2]; MCF, 0.25µM, set4): 0.2815
IC50±sd/μM (cell viability) (Jurkat cells): single-digit micromolar
IC50 (Jurkat cells; Homo sapiens, read-out: IC50±sd/μM (cell viability)): 3.1 ± 1 µM
ΔTm at 20 µM (MERTKA): 2.06 °C
ΔTm at 20 µM (CAMKK2B): 9.77 °C
Structure (SMILES): CCOC(=O)c1cc(Nc2cc(C3CC3)[nH]n2)nc(Nc2ccc(CC#N)cc2)n1 [compound 5]
kinase downregulation profile compared with Jurkat cells ([1]; MCF-7 cells, 0.25 μM, 6 h): comparable downregulation profiles
log2FC (compound/DMSO) ([1]; protein NBPF19;NBPF8;NBPF10;NBPF15;NBPF26;NBPF14;NBPF1;NBPF12, MCF, 0.25µM, set4): 0.03286
log2FC (compound/DMSO) ([1]; protein NBPF19;NBPF8;NBPF26;NBPF14;NBPF12;NBPF10;NBPF15;NBPF1, MCF7, 2.5 µM, set3): -0.1342
log2FC (compound/DMSO) ([1]; protein NUDT4;NUDT11;NUDT10, MCF, 0.25µM, set4): 0.03432
log2FC (compound/DMSO) ([1]; protein UQCRHL;UQCRH, MCF, 0.25µM, set4): 0.1631
